Key:
Assay type in all cases: biochemical
Savinase [1] = molecular target: T1, Savinase (Lederbergia lenta, UniProt P29600); test: Storage stability in Detergent M, residual protease activity after 1 week at 40° C.; details: for Residual activity at dose 1 / Residual activity at dose 2 / Inhibitor dose 1: 1 week 40° C. vs −18° C. reference; for Inhibitor dose 1: dose 1 = concentration C found by interpolation; for ((residual activity at dose 2) − (residual activity at dose 1))/((residual activity at dose 1) − (residual activity at no inhibitor)): criterion that defines dose 1; for Inhibitor dose 2: dose 2 = 2×dose 1
T1 sequence (P29600 1-269): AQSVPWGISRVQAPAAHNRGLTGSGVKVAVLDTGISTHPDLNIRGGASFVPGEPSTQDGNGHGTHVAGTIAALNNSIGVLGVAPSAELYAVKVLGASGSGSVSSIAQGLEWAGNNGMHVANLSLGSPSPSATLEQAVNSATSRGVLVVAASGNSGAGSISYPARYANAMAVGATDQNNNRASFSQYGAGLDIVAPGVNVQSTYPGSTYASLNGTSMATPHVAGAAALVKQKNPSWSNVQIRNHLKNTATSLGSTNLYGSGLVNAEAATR
From the text: An inhibitor concentration C is defined, so that when the inhibitor concentration is doubled from a concentration of C to a concentration of 2C (i.e., 2C=2×C), the residual protease activity increases (“residual protease activity at 2C”−“residual protease activity at C”) by 25% of the residual protease activity increase from no inhibitor to C (“residual protease activity at C”−“residual activity at no inhibitor”). “No inhibitor” means that the concentration of inhibitor is zero.
The test system to determine “dose 1” (C) and “dose 2” (2C) is described in Example 1. A model detergent system is used (detergent A) and protease, lipase, and different concentrations of protease inhibitor are added (detergent M). Residual protease activity is determined by comparing activity after storage for 1 week at 40° C. with 1 week at −18° C. The data are used to prepare a dose response curve which is used to identify the inhibitor concentration C.
Various peptide aldehydes were produced by a custom peptide synthesis company, all with a purity>80%. The peptide aldehydes were dissolved in DMSO to a concentration of 10 mg/mL before use.
Further the following detergents with protease inhibitors were prepared. The detergents were placed in closed glasses at 40° C. Residual activity of protease was measured (by comparison to a reference stored at −18° C.) after 1 week, using standard enzyme analytical methods (protease measured by hydrolysis of N,N-dimethylcasein at 40° C., pH 8.3). The inhibitor levels tested relative to protease were in the range 0.5-500 molar ratio (inhibitor:protease). The data points were connected and the inhibitor dose 1 and dose 2 were determined by interpolation so that ((residual protease activity at dose 2)−(residual protease activity at dose 1))/((residual protease activity at dose 1)−(residual protease activity at no inhibitor))=0.25; and dose 2=2×dose 1.

Savinase [2] = molecular target: T1, Savinase; test: Storage stability in Detergent C, residual protease activity after 4 weeks at 30° C.; details: Detergent C with Savinase; for %-points per dose (residual protease activity): increase from dose 1 to dose 2
Protocol: (§1) Further the following detergents with protease inhibitors were prepared. The detergents were placed in closed glasses at 30° C. Residual activity of lipase and protease was measured (by comparison to a reference stored at −18° C.) after 4 weeks, using standard enzyme analytical methods (protease measured by hydrolysis of N,N-dimethylcasein at 40° C., pH 8.3 and lipase measured by hydrolysis of p-nitrophenyl valerate at 40° C., pH 7.7). Z-GA-NHCH(CH2C6H4OH)CH(OH)SO3Na was added in a concentration of 8.1 mg/L (dose 1) and 16.1 mg/L (dose 2). 4-FPBA was added in a concentration of 80 mg/L (dose 1) and 160 mg/L (dose 2).

Lipase (Lipex 100L) [3] = test: Storage stability in Detergent C with Savinase, residual lipase activity after 4 weeks at 30° C.; details: increase from dose 1 to dose 2
Protocol: as §1

Protease (Savinase 16L) = molecular target: T2, Protease (Savinase 16L) (Lederbergia lenta, UniProt P29600); test: Storage stability in Detergent B, residual protease activity after 4 weeks at 30° C.; details: increase from dose 1 (12.9 mg/L) to dose 2 (26.0 mg/L)
T2 sequence (P29600 1-269): T1 sequence (P29600 1-269)
Protocol: as §1, with “12.9” for “8.1”, “26.0” for “16.1”, “2).” for “2). 4-FPBA was added in a concentration of 80 mg/L (dose 1) and 160 mg/L (dose 2).”

Lipase (Lipex 100L) [4] = test: Storage stability in Detergent B (with Savinase), residual lipase activity after 4 weeks at 30° C.; details: increase from dose 1 (12.9 mg/L) to dose 2 (26.0 mg/L)
Protocol: as §1, with “12.9” for “8.1”, “26.0” for “16.1”, “2).” for “2). 4-FPBA was added in a concentration of 80 mg/L (dose 1) and 160 mg/L (dose 2).”
Target sequence in this assay (O59952 23-291 T253R/N255R): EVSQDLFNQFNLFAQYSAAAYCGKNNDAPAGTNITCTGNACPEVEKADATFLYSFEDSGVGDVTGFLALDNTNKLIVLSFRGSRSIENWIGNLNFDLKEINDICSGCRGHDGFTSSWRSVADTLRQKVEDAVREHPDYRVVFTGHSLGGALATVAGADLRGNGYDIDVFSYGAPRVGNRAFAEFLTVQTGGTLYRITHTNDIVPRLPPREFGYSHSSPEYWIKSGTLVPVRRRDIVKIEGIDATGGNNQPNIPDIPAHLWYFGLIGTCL

Liquanase = test: Storage stability in Detergent C, residual protease activity after 4 weeks at 30° C.; details: Detergent C with Liquanase; increase from dose 1 to dose 2
Protocol: as §1

Lipase (Lipex 100L) [5] = test: Storage stability in Detergent C with Liquanase, residual lipase activity after 4 weeks at 30° C.; details: increase from dose 1 to dose 2
Protocol: as §1
Target sequence in this assay (O59952 23-291 T253R/N255R): as above

Compound | Residual activity at dose 1 (Savinase [1]) [%] | Residual activity at dose 2 (Savinase [1]) [%] | Inhibitor dose 1 (Savinase [1]) [mg/mL] | ((residual activity at dose 2) − (residual activity at dose 1))/((residual activity at dose 1) − (residual activity at no inhibitor)) (Savinase [1]) [%] | Inhibitor dose 2 (Savinase [1]) [mg/mL] | remaining activity at 80 µg/mL (Savinase [2]; 4 weeks 30° C. vs −18° C. reference, dose 1: Z-GA-NHCH(CH2C6H4OH)CH(OH)SO3Na 8.1 mg/L, 4-FPBA 80 mg/L, read-out: Inhibitor dose 1 (residual protease activity)) [%] | remaining activity at 160 µg/mL (Savinase [2]; 4 weeks 30° C. vs −18° C. reference, dose 2: Z-GA-NHCH(CH2C6H4OH)CH(OH)SO3Na 16.1 mg/L, 4-FPBA 160 mg/L, read-out: Inhibitor dose 2 (residual protease activity)) [%] | %-points per dose (residual protease activity) (Savinase [2]) [%] | %-points per dose (residual lipase activity) (Lipase (Lipex 100L) [3]) [%] | %-points per dose (residual protease activity) (Protease (Savinase 16L)) [%] | %-points per dose (residual lipase activity) (Lipase (Lipex 100L) [4]) [%] | %-points per dose (residual protease activity) (Liquanase) [%] | %-points per dose (residual lipase activity) (Lipase (Lipex 100L) [5]) [%]
Cbz-Gly-Ala-Leu-H [Z-GAL-H] | 50 | 60 | 5.7 | 25 | 11.5 | – | – | – | – | – | – | – | –
Cbz-Gly-Ala-Phe-H [Z-GAF-H] | 75 | 90 | 18.7 | 25 | 37.5 | – | – | – | – | – | – | – | –
O=Cc1ccc(B(O)O)cc1 [4-FPBA, 4-formyl-phenyl-boronic acid] | 63 | 75 | 91 | 25 | 182 | 98 | 98 | 0 | 16 | – | – | – | –
Z-GA-NHCH(CH2C6H4OH)CH(OH)SO3Na | – | – | 8.1 | 25 | 16.1 | – | – | 9 | 21 | 10 | 30 | 0 | 25
